Measured values taken from patent US6632421B2, “Deodorant composition comprising a water-soluble zinc salt as odor-absorbing agent” (L'Oreal, priority 1996, dated 2003).

Test: odour absorption test with respect to natural sweat (sniff test on flasks)
Parameters: species or system human
Method: An odour absorption test was carried out with respect to natural sweat.
The axillary sweat from a number of people was thus removed in a sauna and combined to produce a sweat sample. In order to obtain the characteristic nauseating smell of sweat, before introducing the active substance, this sweat sample was incubated for 14 hours at a temperature of 37° C. 1 ml of the incubated sweat sample was introduced into each flask of active substance to be tested and into a control flask (without active substance). The active substance: 5.5 mg of Zn ion in the form of zinc pidolate, zinc chloride, zinc gluconate, zinc lactate, zinc phenolsulphonate and zinc sulphate, was then introduced respectively into each of the flasks of active substance to be tested.
The flasks were then incubated for a second time for 24 hours at a temperature of 37° C. and then for a third time for 3 days at room temperature.
Eight judges then smelled (“sniff test”) each of these flasks and graded the intensity of the smell on a scale from 0 to 4.

Row | Compound | absorption effect on the smell of sweat (sample containing a bactericide, check that the test is truly an odour absorption test) | intensity of the smell, grade on a scale from 0 to 4 (0=no smell, 4=strong smell) (5.5 mg of Zn ion in 1 ml incubated sweat, 24 hours at 37° C. then 3 days at room temperature, eight judges, control flask graded 4)
1 | Oc1cc(Cl)ccc1Oc1ccc(Cl)cc1Cl [triclosan, 5-chloro-2-(2,4-dichlorophenoxy)phenol] | no absorption effect | 
2 | zinc pyrrolidonecarboxylate [zinc pidolate] |  | best results
